From patent US8691584B2, “Sperm processing methods” (priority 2003, dated 2014) come the findings set out here.

The subject of this series is Spermatozoa. Nature of the series: Post-thaw sperm motility under phase contrast microscope (Cryopreservation Example I). Conditions: Hoechst 33342 added to aliquots in TCA buffer, 20 min at 35° C. or 41° C., cryopreserved, thawed 37° C. 50 seconds; analysis of variance. It is filed as cell-based, Bovine. The method, then:
Bovine semen was collected, transported, and evaluated as described above. Two test tubes containing 5 ml each of TCA buffer (pH 7.3) were placed in one of two water baths for at least five minutes. One water bath was at a temperature of 35° C. and the other water bath was at 41° C. Spermatozoa at 24° C. were added to each tube so that the final concentration in each tube was 150×10^6 sperm/ml. The two tubes were each divided into two aliquots which were kept in respective water baths. After the sperm had equilibrated with the TCA buffer for five minutes, […] was added to one of 35° C. aliquots and one of the 41° C. aliquots. After addition of the Hoechst 33342, all four aliquots were incubated for 20 minutes in their respective water bath. After incubation, the test tubes were removed from the water baths and left at room temperature (about 25° C.) for five minutes. Then the contents of each test tube were diluted with a TCA extender containing 20% egg yolk and 6% glycerol (v/v) (pH 7.0) to a final concentration of 20×10^6 sperm/ml. The contents of each test tube were then used to fill a 0.5 ml artificial insemination straw. Each of the four straws was placed in a programmable freezer (an IceCube 1810CD freezer from Minitube of America, Wis.). […]

As to `CCOc1ccc(-c2nc3ccc(-c4nc5ccc(N6CCN(C)CC6)cc5[nH]4)cc3[nH]2)cc1` [Hoechst 33342], the “effect on post-thaw sperm motility” value is reported as “no significant effect”.
